Data reported in patent US20080280987A1, “Methods of inhibiting angiogenesis and treating angiogenesis-associated diseases” (priority 2006, published 2008).
Converted amounts (≈) assume the structure as drawn.

Experiments:
[1] = test system: established HT-29 colon cell tumors; settings: mice, every day for 4 doses; cited from earlier work
[2] = test system: human endothelial cells co-cultured with human fibroblast cells; experiment: Microvessel/tubule formation and disruption assay, TCS CellWorks AngioKit model; type: cell-based; settings: treated on day 11, stained on day 12
Experimental: To study the effect of Nab-5404 and Nab-5676 on angiogenesis, the compounds were evaluated in a microvessel formation assay using a TCS CellWorks AngioKit model (TCS CellWorks Ltd., Botolph Claydon, Buckingham UK). The AngioKit model uses human endothelial cells co-cultured with other human cells. The endothelial cells initially form small islands within the culture matrix, then begin to proliferate and then enter a migratory phase during which they move through the matrix to form threadlike tubule structures. These gradually join up to form a network of tubules which closely resemble a capillary bed (at day 9-11). The tubules stain positive for von Willebrand's factor, CD31 (PECAM-1) and ICAM-2.
In addition to Nab-5404 and Nab-5676, a known vascular targeting agent, combretastatin 4-phosphate (CA4P), was tested for in vitro anti-angiogenic activity. The TCS CellWorks AngioKit model was used according to the manufacturer's instructions. As outlined above, human endothelial cells were co-cultured with human fibroblast cells in a 24 well plate and exposed to Nab-5404, Nab-5676 or CA4P across a range of concentrations (0.01 to 100 μg/ml). […] The length of the tubules was analyzed using ImagePro software and the IC50 of each compound was calculated using Prism software. […]

[3] = test system: established HT-29 colon cell tumors; experiment: Anti-tumor activity in HT-29 xenograft mouse model; type: in vivo; settings: 100 mg/kg every day for 4 doses, tumors 900 mm^3
Experimental: The anti-tumor activity of Nab-5404 and Nab-5676 was evaluated in a xenograft mouse model. The compounds were tested against established HT-29 colon cell tumors in vivo in two cycles, the first a low-dosage schedule followed by a second high-dosage schedule. Irinotecan was used as a positive control in the study. Mice (n=10) were separated into 8 groups with Nab-5404 and Nab-5676 mice receiving the compounds by intravenous injection. The first cycle consisted of administration of Nab-5404 or Nab-5676 every 3 days for 4 doses for days 0-14 followed by the second cycle which consisted of administration of Nab-5404 or Nab-5676 every 3 days for 4 doses for days 15-30. Irinotecan was administered by intravenous injection at a dose of 60 mg/kg every 3 days for 4 doses. The individual groups are shown in Table 2, wherein 1st cycle refers to days 0-14 and 2nd cycle refers to days 15-30.
Combretastatin 4-phosphate (CA4P) was also administered to HT-29 tumor-bearing mice in a separate experiment. The mice (n=10) were treated once tumors reached 900 mm^3 with either vehicle or CA4P at the reported MTD of 100 mg/kg on a schedule of every day for 4 doses.

COc1ccc(/C=C\c2cc(OC)c(OC)c(OC)c2)cc1OP(=O)(O)O [CA4P, combretastatin 4-phosphate]
Reported MTD [1]: 100 mg/kg
IC50 disrupting established tubules (tubule length) [2]: 3 ng/mL (≈ 7.57 nM)
Activity in HT-29 tumor model [3]: inactive
